Paper PMC8943889, “Synthetic studies with the brevicidine and laterocidine lipopeptide antibiotics including analogues with enhanced properties and in vivo efficacy” (Chemical Science, 2022)
≈ marks a conversion by molar mass, not a printed value. Read-outs that look alike come from different tables or passages of the source. Positions of bridges follow the written chain, without caps; N, C: chain ends. Non-standard residues stand in square brackets, D forms with d. Residues, ends and D or L forms follow the SMILES beside them. *: point of attachment. Octanoyl(7-Me) = CC(C)CCCCCC(=O)*; dOrn = NCCC[C@@H](N)C(=O)O; Orn = NCCC[C@H](N)C(=O)O

Legend:
Format in all cases: cell-based
[1] = test system: E. coli MCR-1 (clinical isolate); details: Ec MCR-1; broth microdilution (CLSI), MHB, 16 h 37 °C, three technical replicates
Procedure: (§1) Minimum inhibitory concentrations (MICs) were determined by broth microdilution according to CLSI guidelines in triplicate. Blood agar plates were inoculated with glycerol stocks of E. coli ATCC 25922, E. coli MCR-1 (clinical isolate from Utrecht Medical Centre, NL), E. coli EQAS MCR-2 (clinical isolate from Wageningen University and Research, NL), K. pneumoniae ATCC 11228, K. pneumoniae ATCC 13883, K. pneumonia 2048 (clnical isolate from Vrije Universiteit Amsterdam Medical Centre, NL), K. pneumonia JS-123 (clinical isolate from Utrecht Medical […]
(§2) (clinical isolate from Rijksinstituut voor Volksgezondheid en Milieu, NL), A. baumannii MDR (clinical isolate from Vrije Universiteit Amsterdam Medical Centre, NL), P. aeruginosa ATCC 27853, P. aeruginosa PAO1, P. aeruginosa NRZ-03961 (Reference strain from Das Nationale Referenzzentrum für gramnegative Krankenhauserreger, DE), P. aeruginosa M-120 (clinical isolate from Leiden University Medical Centre, NL) and S. aureus USA300 (clinical isolate from Texas Children's Hospital, USA). E. coli 25922 MCR1 was grown on LB agar supplemented with kanamycin. The inoculated agar plates were then incubated for 16 h at 37°C . Individually grown colonies were subsequently used to inoculate 3 mL aliquots of TSB that were then incubated at 37°C with shaking at 220 rpm. In parallel, the lipopeptide antibiotics to be assessed were serially diluted with Mueller-Hinton broth (MHB) in polypropylene 96-well plates (50 µL in each well).
(§3) Once the OD600 of the bacterial suspensions reached 0.5, the bacteria were diluted with MHB (final concentration 2 × 10^5 CFU mL−1) and added to the microplates containing the test compounds (50 µL to each well, final volume: 100 µL). The well-plates were sealed with an adhesive membrane and after 16 h of incubation at 37°C with shaking at 220 rpm the wells were visually inspected for bacterial growth. MIC values reported are based on three technical replicates and defined as the lowest concentration of the compound that prevented visible growth of bacteria. […]

[2] = test system: K. pneumoniae JS-123
Procedure: as §1, §2, §3

[3] = test system: E. coli ATCC 25922 MCR-1; details: Ec ATCC 25922 MCR-1; broth microdilution (CLSI), MHB, 16 h 37 °C, three technical replicates
Procedure: as §1, §2, §3

[4] = test system: A. baumannii MDR; details: Ab MDR; broth microdilution (CLSI), MHB, 16 h 37 °C, three technical replicates
Procedure: as §1, §2, §3

[5] = test system: A. baumannii ATCC 17961
Procedure: as §1, §2, §3

[6] = test system: K. pneumoniae ATCC 11228
Procedure: as §1, §2, §3

[7] = test system: P. aeruginosa PAO1
Procedure: as §1, §2, §3

[8] = test system: P. aeruginosa NRZ-03961
Procedure: as §1, §2, §3

[9] = test system: E. coli ATCC 25922
Procedure: as §1, §2, §3

[10] = test system: S. aureus USA300
Procedure: as §1, §2, §3

[11] = test system: K. pneumoniae ATCC 13883
Procedure: as §1, §2, §3

[12] = test system: E. coli EQAS MCR-2; details: Ec EQAS MCR-2; broth microdilution (CLSI), MHB, 16 h 37 °C, three technical replicates
Procedure: as §1, §2, §3

[13] = test system: P. aeruginosa ATCC 27853
Procedure: as §1, §2, §3

[14] = test system: A. baumannii ATCC 17978
Procedure: as §1, §2, §3

[15] = test system: K. pneumoniae 2048
Procedure: as §1, §2, §3

[16] = test system: A. baumannii 2018-006
Procedure: as §1, §2, §3

[17] = test system: P. aeruginosa M-120
Procedure: as §1, §2, §3

Compound	MIC [1] [µg/mL]	MIC ([2]; JS-123, 16 h) [µg/mL]	MIC [4] [µg/mL]	MIC ([5]; ATCC 17961, 16 h) [µg/mL]	MIC ([6]; ATCC 11228, 16 h) [µg/mL]	MIC ([7]; PAO1, 16 h) [µg/mL]	MIC ([8]; NRZ-03961, 16 h) [µg/mL]	MIC ([9]; ATCC 25922, 16 h) [µg/mL]	MIC ([10]; USA300, 16 h) [µg/mL]	MIC ([11]; ATCC 13883, 16 h) [µg/mL]	MIC [12] [µg/mL]	MIC ([13]; ATCC 27853, 16 h) [µg/mL]	MIC ([14]; ATCC 17978, 16 h) [µg/mL]	MIC ([15]; 2048, 16 h) [µg/mL]	MIC ([16]; 2018-006, 16 h) [µg/mL]	MIC ([17]; M-120, 16 h) [µg/mL]	other results
CC[C@H](C)[C@@H]1NC(=O)[C@@H](NC(=O)[C@H](Cc2c[nH]c3ccccc23)NC(=O)[C@@H](CCCN)NC(=O)CNC(=O)[C@H](CCCN)NC(=O)[C@@H](CCCN)NC(=O)[C@@H](Cc2c[nH]c3ccccc23)NC(=O)[C@@H](Cc2ccc(O)cc2)NC(=O)[C@@H](CO)NC(=O)CCCCCC(C)C)[C@@H](C)NC(=O)CNC(=O)CNC(=O)[C@H](CC(N)=O)NC1=O [MeDap9-Lat (8), MeDap9-laterocidine]	0.5 (≈ 0.312 µM)	0.5 (≈ 0.312 µM)	4 (≈ 2.49 µM)	2 (≈ 1.25 µM)	1 to 2	2 (≈ 1.25 µM)	2 (≈ 1.25 µM)	1 (≈ 0.623 µM)	32 (≈ 20 µM)	1 to 2	0.5 (≈ 0.312 µM)	0.5 (≈ 0.312 µM)	2 (≈ 1.25 µM)	2 (≈ 1.25 µM)	4 (≈ 2.49 µM)	1 (≈ 0.623 µM)	MIC [3]: 1 µg/mL (≈ 0.623 µM)
CC[C@H](C)[C@@H]1NC(=O)[C@@H](NC(=O)[C@H](Cc2c[nH]c3ccccc23)NC(=O)[C@@H](CCCN)NC(=O)CNC(=O)[C@H](CCCN)NC(=O)[C@@H](CCCN)NC(=O)[C@@H](Cc2c[nH]c3ccccc23)NC(=O)[C@@H](Cc2ccc(O)cc2)NC(=O)[C@@H](CO)NC(=O)CCCCCC(C)C)COC(=O)CNC(=O)CNC(=O)[C@H](CC(N)=O)NC1=O [Ser9-Lat (4), Ser9-Laterocidine] ({Octanoyl(7-Me)}-[dS][dY][dW][dOrn][Orn]G[dOrn]WSINGG; ester 9-C)	–	0.5 (≈ 0.314 µM)	–	4 (≈ 2.51 µM)	1 to 2	2 (≈ 1.26 µM)	1 to 2	0.5 (≈ 0.314 µM)	>64	1 to 2	–	0.5 to 1	2 (≈ 1.26 µM)	2 (≈ 1.26 µM)	4 (≈ 2.51 µM)	1 (≈ 0.629 µM)	–
colistin [reference compound]	2 to 4	–	<0.25	–	–	–	–	–	–	–	4	–	–	–	–	–	MIC ([2]; Kp JS-123, broth microdilution (CLSI), MHB, 16 h 37 °C, three technical replicates): <0.25 µg/mL; MIC ([5]; Ab ATCC 17961, broth microdilution (CLSI), MHB, 16 h 37 °C, three technical replicates): <0.25 µg/mL; MIC ([6]; Kp ATCC 11228, broth microdilution (CLSI), MHB, 16 h 37 °C, three technical replicates): <0.25 µg/mL; MIC ([7]; Pa PAO1, broth microdilution (CLSI), MHB, 16 h 37 °C, three technical replicates): 0.25 to 0.5 µg/mL; MIC ([8]; Pa NRZ-03961, broth microdilution (CLSI), MHB, 16 h 37 °C, three technical replicates): 0.25 to 0.5 µg/mL; MIC ([9]; Ec ATCC 25922, broth microdilution (CLSI), MHB, 2 × 10^5 CFU/mL, 16 h 37 °C, visual read-out, three technical replicates): 0.25 to 0.5 µg/mL; MIC ([10]; Sa USA300, broth microdilution (CLSI), MHB, 16 h 37 °C, three technical replicates): >64 µg/mL; MIC ([11]; Kp ATCC 13883, broth microdilution (CLSI), MHB, 16 h 37 °C, three technical replicates): 0.25 µg/mL; MIC ([13]; Pa ATCC 27853, broth microdilution (CLSI), MHB, 16 h 37 °C, three technical replicates): <0.25 µg/mL; MIC ([14]; Ab ATCC 17978, broth microdilution (CLSI), MHB, 16 h 37 °C, three technical replicates): <0.25 µg/mL; MIC ([15]; Kp 2048, broth microdilution (CLSI), MHB, 16 h 37 °C, three technical replicates): 0.5 to 1 µg/mL; MIC ([16]; Ab 2018-006, broth microdilution (CLSI), MHB, 16 h 37 °C, three technical replicates): <0.25 µg/mL; MIC ([17]; Pa M-120, broth microdilution (CLSI), MHB, 16 h 37 °C, three technical replicates): <0.25 µg/mL
